Read-outs that look alike come from different tables or passages of the source.
Assays:
[1] = system: KB (human nasopharyngeal carcinoma); experiment: Cytotoxicity against KB cell line; assay type: cell-based
[2] = system: LoVo (human colon carcinoma); experiment: Cytotoxicity against LoVo cell line; assay type: cell-based
[3] = system: SKOV3 (human ovarian carcinoma); experiment: Cytotoxicity against SKOV3 cell line (Table 2); assay type: cell-based
[4] = system: murine leukemia (L1210 or P388), murine solid tumor, human solid tumor and low malignancy fibroblast (LML) cells
[5] = system: pancreatic ductal adenocarcinoma #03 (Panc 03, P03); conditions: SC P03
[6] = system: murine and human tumors implanted in mice
Protocol: Gross log kill is defmed as T-C/3.2 Td where T is the median time in days for the tumors of the treated group to reach 750 mg, C is the median time in days for the tumors of the control group to reach 750 mg, and Td is the tumor volume doubling time. […] An activity rating of +++ to ++++, which is indicative of clinical activity, is needed to effect partial or complete regression of 100-300 mg size masses of most transplanted solid tumors of mice.

[7] = system: colon adenocarcinoma #38 (Colon 38, C38); conditions: for % Body Wt. Loss at Nadir / Cures / T/C: SC C38; for Log Kill: mouse, in vivo
[8] = system: colon adenocarcinoma #51 (Colon 51); experiment: In vivo activity, SC Colon 51 tumor; conditions: Exp 1900, 9 IV inj., 67.5 mg/kg TD
[9] = system: Mam 16/C (taxol-sensitive mammary #16/C); experiment: In vivo activity, SC Mam 16/C tumor; conditions: Exp 1885, 7 IV inj., 21.3 mg/kg TD
[10] = Exp 1843, 7 IV inj., 23 mg/kg TD
[11] = Exp 1843, 4 IV inj., 28/5 mg/kg TD
[12] = Exp 1878, 9 IV inj., 82 mg/kg TD
[13] = Exp 1813, 9 IV inj., 27 mg/kg TD
[14] = Exp 1769, 15 IV inj., 45 mg/kg TD
[15] = Exp 1887B, 6 IV inj., 30 mg/kg TD
[16] = Exp 1825, 11 IV inj., 106 mg/kg TD

For COc1ccc(C[C@@H](NC(=O)/C=C/C[C@H](O)[C@H](C)/C=C/c2ccccc2)C(=O)NC[C@@H](C)C(=O)O)cc1Cl [Cryptophycin 14], the “KB IC50” value ([1]; Table 1) was 1.8 ng/mL.
In the case of COc1ccc(C[C@H]2NC(=O)/C=C/C[C@@H]([C@H](C)/C=C/c3ccccc3)OC(=O)[C@H](CC(C)C)OC(=O)[C@H](C)CNC2=O)cc1 [Cryptophycin 4], the “KB IC50” value ([1]; Table 1) is reported as 1.3 ng/mL, the “LoVo IC50” value ([2]; Table 2) is reported as 2.5 ng/mL and the “SKOV3 IC50” value [3] is reported as 21 ng/mL. The “Differential in Zone Units, Corbett Assay” value (“Differential in Zone Units” below) ([4]; 20 μg/disk) was greater than 400 zone units and the “Type of Cytotoxicity, Corbett Assay” value ([4]; 20 μg/disk) was “E/T”.
With COc1c(Cl)cc(C[C@H]2NC(=O)/C=C/C[C@@H]([C@H](C)[C@H]3O[C@@H]3c3ccccc3)OC(=O)[C@H](CC(C)C)OC(=O)[C@H](C)CNC2=O)cc1Cl [Cryptophycin 31] the “KB IC50” value ([1]; Table 2) was 0.53 ng/mL, the “LoVo IC50” value ([2]; Table 2) was 0.062 ng/mL and the “SKOV3 IC50” value [3] was 1.9 ng/mL.
With COc1ccc(C[C@H]2NC(=O)/C=C/C[C@@H]([C@H](C)[C@@H](O)[C@@H](OC)c3ccccc3)OC(=O)[C@H](CC(C)C)OC(=O)[C@H](C)CNC2=O)cc1Cl [Cryptophycin 9] the “KB IC50” value ([1]; Table 1) was 15 ng/mL.
With CC(C)C[C@@H]1OC(=O)[C@H](C)CNC(=O)[C@@H](Cc2ccc(O)c(Cl)c2)NC(=O)/C=C/C[C@@H]([C@H](C)/C=C/c2ccccc2)OC1=O [Cryptophycin 17] the “KB IC50” value ([1]; Table 2) was 4.7 ng/mL, the “LoVo IC50” value ([2]; Table 2) was 5.9 ng/mL and the “SKOV3 IC50” value [3] was 11 ng/mL.
COc1ccc(CC2NC(=O)CCCC(C(C)C3OC3c3ccccc3)OC(=O)C(CC(C)C)OC(=O)C(C)CNC2=O)cc1Cl (stereo not shown) [Cryptophycin 35] was tested, and the “% Body Wt. Loss at Nadir” value [5, 10] was -2%, the Cures [5, 10] was 0/5 and the “Log Kill” value [5, 10] was 1.3. For the same molecule, the T/C [5, 10] was 11% and the “in vivo activity (in words)” value [6] was “Good in vivo activity”.
COc1ccc(C[C@@H](NC(=O)/C=C/C[C@@H]2O[C@@H](c3ccccc3)[C@H](O)[C@H]2C)C(=O)O)cc1Cl [Cryptophycin 7] was tested, and the “KB IC50” value ([1]; Table 1) was no less than 750 ng/mL and the “LoVo IC50” value ([2]; Table 1) was no less than 480 ng/mL.
For COc1ccc(C[C@H]2NC(=O)/C=C/C[C@@H]([C@H](C)/C=C/c3ccccc3)OC(=O)[C@H](CC(C)C)OC(=O)[C@H](C)CNC2=O)cc1Cl [Cryptophycin 3], the “KB IC50” value ([1]; Table 1) was 0.3 ng/mL, the “LoVo IC50” value ([2]; Table 1) was 0.5 ng/mL and the “LoVo IC50” value ([2]; Table 2) was 0.6 ng/mL. The “SKOV3 IC50” value [3] was 2.8 ng/mL, the “Differential in Zone Units” value ([4]; 25 μg/disk) was greater than 400 zone units and the “Type of Cytotoxicity, Corbett Assay” value ([4]; 25 μg/disk) was “E/T”. For the same molecule, the “% Body Wt. Loss at Nadir” value [5, 11] was -9%, the Cures [5, 11] was 0/5 and the “Log Kill” value [5, 11] was less than 1. The T/C [5, 11] was 54%.
For COc1ccc(C[C@H]2NC(=O)/C=C/C[C@@H](C[C@H]3O[C@@H]3c3ccccc3)OC(=O)[C@H](CC(C)C)OC(=O)[C@H](C)CNC2=O)cc1Cl [Cryptophycin 40], the “KB IC50” value ([1]; Table 2) was 9.0 ng/mL and the “LoVo IC50” value ([2]; Table 2) was 1.0 ng/mL.
For CC[C@H](C)[C@@H]1OC(=O)[C@H](C)CNC(=O)[C@@H](Cc2ccc(OC)c(Cl)c2)NC(=O)/C=C/C[C@@H]([C@H](C)[C@H]2O[C@@H]2c2ccccc2)OC1=O [Cryptophycin 54], the “KB IC50” value ([1]; Table 2) was 0.80 ng/mL, the “LoVo IC50” value ([2]; Table 2) was 2.2 ng/mL and the “SKOV3 IC50” value [3] was 2.2 ng/mL.
For CC(C)C[C@@H]1OC(=O)[C@H](C)CNC(=O)[C@@H](Cc2ccc(O)c(Cl)c2)NC(=O)/C=C/C[C@@H]([C@H](C)[C@H]2O[C@@H]2c2ccccc2)OC1=O [Cryptophycin 16], the “KB IC50” value ([1]; Table 2) was 0.08 ng/mL, the “SKOV3 IC50” value [3] was 0.64 ng/mL and the “% Body Wt. Loss at Nadir” value [5, 12] was -1%. For the same molecule, the Cures [5, 12] was 0/5, the “Log Kill” value [5, 12] was “None” and the T/C [5, 12] was 89%.
With COc1ccc(C[C@H]2NC(=O)/C=C/C[C@@H](C/C=C/c3ccccc3)OC(=O)[C@H](CC(C)C)OC(=O)[C@H](C)CNC2=O)cc1Cl [Cryptophycin 28] the “KB IC50” value ([1]; Table 2) was 1.5 ng/mL, the “LoVo IC50” value ([2]; Table 2) was 0.75 ng/mL and the “SKOV3 IC50” value [3] was 6.1 ng/mL.
COc1ccc(C[C@H]2NC(=O)/C=C/C[C@@H]([C@H](C)[C@H]3O[C@@H]3c3ccccc3)OC(=O)[C@H](CC(C)C)OC(=O)CCNC2=O)cc1Cl [Cryptophycin 21] was tested, and the “LoVo IC50” value ([2]; Table 2) was 0.0003 ng/mL, the “SKOV3 IC50” value [3] was 0.029 ng/mL and the “% Body Wt. Loss at Nadir” value [5, 13] was -11%. The Cures [5, 13] was 0/5, the “Log Kill” value [5, 13] was “None” and the T/C [5, 13] was 61%. For the same molecule, the “dead (animals)” value [5, 13] was 1/5.
COc1ccc(C[C@H]2NC(=O)C[C@@H](C[C@H](O)[C@H](C)/C=C/c3ccccc3)OC(=O)[C@H](CC(C)C)OC(=O)[C@H](C)CNC2=O)cc1Cl [Cryptophycin 26] was tested, and the “KB IC50” value ([1]; Table 2) was 19 ng/mL, the “LoVo IC50” value ([2]; Table 2) was 9.8 ng/mL and the “SKOV3 IC50” value [3] was 95 ng/mL.
COc1ccc(C[C@@H](NC(=O)/C=C/C[C@@H]2O[C@@H](c3ccccc3)[C@H](O)[C@H]2C)C(=O)NC[C@@H](C)C(=O)O)cc1Cl [Cryptophycin 12] was tested, and the “KB IC50” value ([1]; Table 1) was no less than 100 ng/mL, the “KB IC50” value ([1]; Table 2) was 18 ng/mL and the “LoVo IC50” value ([2]; Table 1) was no less than 100 ng/mL.
With COc1ccc(C[C@H]2NC(=O)/C=C/C[C@@H]([C@H](C)[C@H]3O[C@@H]3c3ccccc3)OC(=O)[C@H](CC(C)C)OC(=O)CCNC2=O)cc1 [Cryptophycin 24] the “KB IC50” value ([1]; Table 2) was 0.12 ng/mL, the “LoVo IC50” value ([2]; Table 2) was 0.095 ng/mL and the “SKOV3 IC50” value [3] was 0.3 ng/mL.
With COc1ccc(C[C@H]2NC(=O)/C=C/C[C@@H]([C@H](C)/C=C/c3ccccc3)OC(=O)[C@H](CC(C)C)OC(=O)CCNC2=O)cc1Cl [Cryptophycin 29] the “LoVo IC50” value ([2]; Table 2) was 0.49 ng/mL and the “SKOV3 IC50” value [3] was 3.4 ng/mL.
For COc1ccc(C[C@H]2NC(=O)/C=C/C[C@@H]([C@H](C)[C@@H](O)[C@@H](Cl)c3ccccc3)OC(=O)[C@H](CC(C)C)OC(=O)[C@H](C)CNC2=O)cc1Cl [Cryptophycin 8], the “KB IC50” value ([1]; Table 1) was 0.0002 ng/mL, the “KB IC50” value ([1]; Table 2) was 0.01 ng/mL and the “LoVo IC50” value ([2]; Table 1) was 0.01 ng/mL. The “LoVo IC50” value ([2]; Table 2) was 0.0022 ng/mL, the “SKOV3 IC50” value [3] was 0.15 ng/mL and the “Differential in Zone Units” value ([4]; 30 μg/disk) was greater than 500 zone units. For the same molecule, the “Type of Cytotoxicity, Corbett Assay” value ([4]; 30 μg/disk) was “E/T”, the “% Body Wt. Loss at Nadir” value [7, 14] was -2% and the Cures [7, 14] was 0/5. The T/C [7, 14] was greater than 100%, the “% Body Wt. Loss at Nadir” value [7, 15] was -2% and the Cures [7, 15] was 1/5. For the same molecule, the T/C [7, 15] was 0%, the “Log Kill” value ([7]; 30 mg/kg) was 2.8 and the “Log Kill” value ([7]; 45 mg/kg) was “None”. The “% Body Wt. Loss at Nadir” value [5, 16] was -6%, the Cures [5, 16] was 0/5 and the “Log Kill” value [5, 16] was 4.6. The T/C [5, 16] was 4%, the “cures (in words)” value [6] was “some cures” and the “gross log kill activity rating” value [6] was “+++ to ++++”. The “in vivo activity (in words)” value [6] was “active against a broad spectrum of tumors implanted in mice”, the “cause of lethal toxicity observed during testing” value ([6]; mice) was “leucopenia” and the “tumor burden T/C (mean tumor burden in treated animals/mean tumor burden untreated animals)” value ([6]; text summary over the tumors named in the sentence) was less than 10%. The “% Body Wt. Loss at Nadir” value [8] was -1%, the Cures [8] was 0/5 and the “Log Kill” value [8] was 1.8. The T/C [8] was 7%, the “% Body Wt. Loss at Nadir” value [9] was -4.5% and the Cures [9] was 0/5. The “Log Kill” value [9] was 2.5 and the T/C [9] was 6%.
With COC(=O)[C@H](C)CNC(=O)[C@@H](Cc1ccc(OC)c(Cl)c1)NC(=O)/C=C/C[C@H](OC(=O)[C@@H](O)CC(C)C)[C@H](C)[C@H]1O[C@@H]1c1ccccc1 [Cryptophycin 5] the “KB IC50” value ([1]; Table 1) was 0.02 ng/mL, the “KB IC50” value ([1]; Table 2) was 12 ng/mL and the “SKOV3 IC50” value [3] was 7.4 ng/mL.
COc1ccc(C[C@H]2NC(=O)C[C@H](O)C[C@@H]([C@H](C)/C=C/c3ccccc3)OC(=O)[C@H](CC(C)C)OC(=O)[C@H](C)CNC2=O)cc1Cl [Cryptophycin 30] was tested, and the “KB IC50” value ([1]; Table 2) was 11 ng/mL.
With COc1ccc(C[C@H]2NC(=O)CCC[C@@H]([C@H](C)[C@H]3O[C@@H]3c3ccccc3)OC(=O)[C@H](CC(C)C)OC(=O)[C@H](C)CNC2=O)cc1Cl [Cryptophycin 35] the “KB IC50” value ([1]; Table 2) was 0.055 ng/mL and the “SKOV3 IC50” value [3] was 0.092 ng/mL.
In the case of COc1ccc(C[C@H]2NC(=O)/C=C/C[C@@H]([C@H](C)/C=C/c3ccccc3)OC(=O)[C@H](C(C)C)OC(=O)[C@H](C)CNC2=O)cc1Cl [Cryptophycin 19], the “KB IC50” value ([1]; Table 2) is reported as 9.8 ng/mL and the “SKOV3 IC50” value [3] is reported as 41 ng/mL.
With COc1ccc(C[C@H]2NC(=O)/C=C/C[C@@H]([C@H](C)[C@H]3O[C@@H]3c3ccccc3)OC(=O)[C@H](CC(C)C)OC(=O)[C@H](C)CNC2=O)cc1 [Cryptophycin 2] the “LoVo IC50” value ([2]; Table 1) was 0.0002 ng/mL, the “LoVo IC50” value ([2]; Table 2) was 0.021 ng/mL and the “SKOV3 IC50” value [3] was 0.18 ng/mL. For the same molecule, the “Differential in Zone Units” value ([4]; 25 μg/disk) was greater than 400 zone units and the “Type of Cytotoxicity, Corbett Assay” value ([4]; 25 μg/disk) was “E/T”.
For CC[C@H](C)[C@@H]1OC(=O)[C@H](C)CNC(=O)[C@@H](Cc2ccc(OC)c(Cl)c2)NC(=O)/C=C/C[C@@H]([C@H](C)/C=C/c2ccccc2)OC1=O [Cryptophycin 18], the “LoVo IC50” value ([2]; Table 2) was 4.5 ng/mL and the “SKOV3 IC50” value [3] was 23 ng/mL.

Source: patent US5952298A, “Cryptophycins” (priority 1995, dated 1999)
